The source of these data is PubChem BioAssay AID1259407 (Chemical Carcinogenesis Research Information System (CCRIS), 2018).

Molecules are shown by their SMILES. Activity calls are given as the source filed them. No rule for the calls is given here.

For this data set, the system named is CCRIS mutagenicity, Ames/micronucleus/aberration tests. Briefly: CCRIS mutagenicity studies.
The mark [1] stands for this setting: Test System: AMES SALMONELLA TYPHIMURIUM, Strain/Indicator: TA97, Metabolic Activation: NONE, Method: PREINCUBATION
Setting [2] is: Test System: AMES SALMONELLA TYPHIMURIUM, Strain/Indicator: TA102, Metabolic Activation: NONE, Method: PREINCUBATION
Setting [3] is: Test System: AMES SALMONELLA TYPHIMURIUM, Strain/Indicator: TA102, Metabolic Activation: RAT, LIVER, S-9, AROCLOR 1254, Method: PREINCUBATION
[4] abbreviates: Test System: AMES SALMONELLA TYPHIMURIUM, Strain/Indicator: TA98, Metabolic Activation: NONE, Method: PREINCUBATION
[5] abbreviates: Test System: AMES SALMONELLA TYPHIMURIUM, Strain/Indicator: TA100, Metabolic Activation: NONE, Method: PREINCUBATION
Where [6] appears, read: Test System: AMES SALMONELLA TYPHIMURIUM, Strain/Indicator: TA1535, Metabolic Activation: NONE, Method: PREINCUBATION
The mark [7] stands for this setting: Test System: AMES SALMONELLA TYPHIMURIUM, Strain/Indicator: TA98, Metabolic Activation: NONE, Method: STANDARD PLATE.
The mark [8] stands for this setting: Test System: AMES SALMONELLA TYPHIMURIUM, Strain/Indicator: TA100, Metabolic Activation: NONE, Method: STANDARD PLATE.

Regarding `O=C1C[C@@H]2NCCCNCCCCN(CCCN1)C(=O)[C@@H]1c3cc2ccc3O[C@H]1c1ccc(O)cc1`, the mutagenic call is “inactive; negative” (Test System: AMES SALMONELLA TYPHIMURIUM, Strain/Indicator: TA97A, Metabolic Activation: NONE); “inactive; negative” (Test System: AMES SALMONELLA TYPHIMURIUM, Strain/Indicator: TA97A, Metabolic Activation: RAT, LIVER, S-9); “active; positive” (Test System: AMES SALMONELLA TYPHIMURIUM, Strain/Indicator: TA98, Metabolic Activation: NONE); “active; positive” (Test System: AMES SALMONELLA TYPHIMURIUM, Strain/Indicator: TA98, Metabolic Activation: RAT, LIVER, S-9); “active; positive” (Test System: AMES SALMONELLA TYPHIMURIUM, Strain/Indicator: TA100, Metabolic Activation: NONE); “active; positive” (Test System: AMES SALMONELLA TYPHIMURIUM, Strain/Indicator: TA100, Metabolic Activation: RAT, LIVER, S-9).

On to `CC(C)CCOC(=O)CC(C)C`, for which the mutagenic call under setting [1] was “inactive; negative”; the mutagenic call (Test System: AMES SALMONELLA TYPHIMURIUM, Strain/Indicator: TA97, Metabolic Activation: RAT, LIVER, S-9, AROCLOR 1254, Method: PREINCUBATION) was “inactive; negative”; the mutagenic call under setting [2] is “inactive; negative”; the mutagenic call under setting [3] is “inactive; negative”.

On to `COc1ccc(/C=C/c2cc(OC)cc(=O)o2)cc1`, for which the mutagenic call (Test System: Mouse lymphoma cells, Strain/Indicator: L5178Y ( tk+/tk-), Metabolic Activation: Human, Liver, S-9, Method: Suspension/plate) is “inactive; negative”.

Turning to `Nc1cc([N+](=O)[O-])cc(Cl)c1O`, the mutagenic call by setting is: (Test System: AMES SALMONELLA TYPHIMURIUM, Strain/Indicator: TA97, Metabolic Activation: HAMSTER, LIVER, S-9, AROCLOR 1254 (10%), Method: PREINCUBATION) “active; positive”; under setting [1], “active; positive”; (Test System: AMES SALMONELLA TYPHIMURIUM, Strain/Indicator: TA97, Metabolic Activation: RAT, LIVER, S-9, AROCLOR 1254 (10%), Method: PREINCUBATION) “active; positive”; (Test System: AMES SALMONELLA TYPHIMURIUM, Strain/Indicator: TA98, Metabolic Activation: HAMSTER, LIVER, S-9, AROCLOR 1254 (10%), Method: PREINCUBATION) “active; positive”; under setting [4], “active; positive”; (Test System: AMES SALMONELLA TYPHIMURIUM, Strain/Indicator: TA98, Metabolic Activation: RAT, LIVER, S-9, AROCLOR 1254 (10%), Method: PREINCUBATION) “active; positive”. Also, the mutagenic call reads like this: (Test System: AMES SALMONELLA TYPHIMURIUM, Strain/Indicator: TA100, Metabolic Activation: HAMSTER, LIVER, S-9, AROCLOR 1254 (10%), Method: PREINCUBATION) “inactive; negative”; under setting [5], “active; positive”; (Test System: AMES SALMONELLA TYPHIMURIUM, Strain/Indicator: TA100, Metabolic Activation: RAT, LIVER, S-9, AROCLOR 1254 (10%), Method: PREINCUBATION) “active; positive”; (Test System: AMES SALMONELLA TYPHIMURIUM, Strain/Indicator: TA1535, Metabolic Activation: HAMSTER, LIVER, S-9, AROCLOR 1254 (10%), Method: PREINCUBATION) “inactive; negative”; under setting [6], “inactive; negative”; (Test System: AMES SALMONELLA TYPHIMURIUM, Strain/Indicator: TA1535, Metabolic Activation: RAT, LIVER, S-9, AROCLOR 1254 (10%), Method: PREINCUBATION) “inactive; negative”.

As for `Nc1ccc2c(O)cc(S(=O)(=O)O)cc2c1`, the mutagenic call by setting is: (End Point: IN VITRO CHROMOSOMAL ABERRATIONS, Test System: CHL CELLS, Metabolic Activation: NONE) “inactive; negative”; (End Point: IN VITRO CHROMOSOMAL ABERRATIONS, Test System: CHL CELLS, Metabolic Activation: RAT, LIVER, S-9, SODIUM PHENOBARBITAL AND 5,6-BENZOFLAVONE) “active; positive”.

For `O=C(O)C[C@H](O)C[C@H](O)/C=C/c1c(C2CC2)nc2ccccc2c1-c1ccc(F)cc1`, the mutagenic call runs as follows: under setting [4], “inactive; negative”; (Test System: AMES SALMONELLA TYPHIMURIUM, Strain/Indicator: TA98, Metabolic Activation: S-9, Method: PREINCUBATION) “inactive; negative”; under setting [5], “inactive; negative”; (Test System: AMES SALMONELLA TYPHIMURIUM, Strain/Indicator: TA100, Metabolic Activation: S-9, Method: PREINCUBATION) “inactive; negative”; under setting [6], “inactive; negative”; (Test System: AMES SALMONELLA TYPHIMURIUM, Strain/Indicator: TA1535, Metabolic Activation: S-9, Method: PREINCUBATION) “inactive; negative”. In addition, the mutagenic call (Test System: AMES SALMONELLA TYPHIMURIUM, Strain/Indicator: TA1537, Metabolic Activation: NONE, Method: PREINCUBATION) was “inactive; negative”; the mutagenic call (Test System: AMES SALMONELLA TYPHIMURIUM, Strain/Indicator: TA1537, Metabolic Activation: S-9, Method: PREINCUBATION) was “inactive; negative”; the mutagenic call (Test System: ESCHERICHIA COLI, Strain/Indicator: WP2 UVR A, Metabolic Activation: NONE, Method: PREINCUBATION) was “inactive; negative”; the mutagenic call (Test System: ESCHERICHIA COLI, Strain/Indicator: WP2 UVR A, Metabolic Activation: S-9, Method: PREINCUBATION) is “inactive; negative”; the mutagenic call (Test System: UDS RAT HEPATOCYTES IN VIVO, Strain/Indicator: CRJ:CD(SD)/THYMIDINE INCORPORATION, Metabolic Activation: NONE, Method: AUTORADIOGRAPHY) was “inactive; negative”.

For `OCc1ccc2c(c1)-c1cccc3cccc-2c13`, the mutagenic call is “inactive; negative” under setting [7] and “active; positive” under setting [8].

Consider `COC(=O)C(/C=C(C)/C=C(C)/C=C/C=C(\C)C(=O)[C@]12O[C@H]1[C@@](O)(CCO)NC2=O)=C/CO`, for which the mutagenic call under setting [5] was “active; positive”.

`Fc1cc2cccnc2c2ncccc12`: the mutagenic call (Test System: AMES SALMONELLA TYPHIMURIUM, Strain/Indicator: TA100, Metabolic Activation: RAT, LIVER, S-9, PHENOBARBITAL AND 5,6-BENZOFLAVONE, Method: PREINCUBATION) is “active; positive”.

For the compound `CC(C)Nc1nc(N)nc(Cl)n1`, the mutagenic call is “inactive; negative” (Test System: AMES SALMONELLA TYPHIMURIUM, Strain/Indicator: TA97, Metabolic Activation: NONE, Method: STANDARD PLATE); “inactive; negative” under setting [7]; “inactive; negative” under setting [8].

For `NC(=O)N(CCF)N=O`, the mutagenic call (Test System: E. COLI B, Strain/Indicator: H/R30R, Metabolic Activation: NONE) was “active; positive” and the mutagenic call (Test System: E. COLI B, Strain/Indicator: HS30R, Metabolic Activation: NONE) is “active; positive”.

For `O=C1NS(=O)(=O)c2ccccc21`, the mutagenic call is, setting by setting: (Test System: AMES SALMONELLA TYPHIMURIUM, Strain/Indicator: TA97A, Metabolic Activation: NONE, Method: PREINCUBATION) “inactive; negative”; (Test System: AMES SALMONELLA TYPHIMURIUM, Strain/Indicator: TA97A, Metabolic Activation: RAT, LIVER, S-9, AROCLOR 1254, Method: PREINCUBATION) “inactive; negative”; under setting [2], “inactive; negative”; under setting [3], “inactive; negative”.
